Results from PubChem BioAssay (NCI).
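A five-concentration, 48-hour dose response in 96-well plates underlies each endpoint, interpolated linearly between surrounding concentrations. TGI is the concentration that stops growth completely.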

Assays:
Assay in all cases: growth of human tumour cells (NCI), 48 h
CCRF-CEM leukemia = tested on: CCRF-CEM leukemia
HCT-15 colon = tested on: HCT-15 colon
MALME-3M melanoma = tested on: MALME-3M melanoma
NCI-H226 lung = tested on: NCI-H226 lung
MCF7 breast = tested on: MCF7 breast
NCI-H460 lung = tested on: NCI-H460 lung
DU-145 prostate = tested on: DU-145 prostate
EKVX NSCLC = tested on: EKVX NSCLC
HS 578T breast = tested on: HS 578T breast
OVCAR-3 ovarian = tested on: OVCAR-3 ovarian
CAKI-1 renal = tested on: CAKI-1 renal
MDA-MB-231 breast = tested on: MDA-MB-231 breast
BT-549 breast = tested on: BT-549 breast
NCI/ADR-RES ovarian = tested on: NCI/ADR-RES ovarian
COLO 205 colon = tested on: COLO 205 colon
PC-3 prostate = tested on: PC-3 prostate
IGROV1 ovarian = tested on: IGROV1 ovarian
TK-10 renal = tested on: TK-10 renal
HOP-62 NSCLC = tested on: HOP-62 NSCLC
SNB-75 CNS = tested on: SNB-75 CNS
A498 renal = tested on: A498 renal
T-47D breast = tested on: T-47D breast
SR leukemia = tested on: SR leukemia
HCT-116 colon = tested on: HCT-116 colon
HCC-2998 colon = tested on: HCC-2998 colon
SN12C renal = tested on: SN12C renal
NCI-H23 lung = tested on: NCI-H23 lung
SW-620 colon = tested on: SW-620 colon
HL-60(TB) leukemia = tested on: HL-60(TB) leukemia
SF-539 CNS = tested on: SF-539 CNS
HOP-92 NSCLC = tested on: HOP-92 NSCLC
SK-MEL-2 melanoma = tested on: SK-MEL-2 melanoma
K-562 leukemia = tested on: K-562 leukemia
MOLT-4 leukemia = tested on: MOLT-4 leukemia
UO-31 renal = tested on: UO-31 renal
A549 NSCLC = tested on: A549 NSCLC
UACC-62 melanoma = tested on: UACC-62 melanoma
U251 CNS = tested on: U251 CNS
HT29 colon = tested on: HT29 colon
OVCAR-8 ovarian = tested on: OVCAR-8 ovarian
RPMI-8226 leukemia = tested on: RPMI-8226 leukemia
SK-OV-3 ovarian = tested on: SK-OV-3 ovarian
NCI-H522 lung = tested on: NCI-H522 lung
ACHN renal = tested on: ACHN renal
KM12 colon = tested on: KM12 colon
OVCAR-5 ovarian = tested on: OVCAR-5 ovarian
SF-268 CNS = tested on: SF-268 CNS
MDA-MB-435 = tested on: MDA-MB-435
786-0 renal = tested on: 786-0 renal
SK-MEL-28 melanoma = tested on: SK-MEL-28 melanoma
SF-295 CNS = tested on: SF-295 CNS
UACC-257 melanoma = tested on: UACC-257 melanoma
SK-MEL-5 melanoma = tested on: SK-MEL-5 melanoma
RXF 393 renal = tested on: RXF 393 renal
OVCAR-4 ovarian = tested on: OVCAR-4 ovarian
M14 melanoma = tested on: M14 melanoma
SNB-19 CNS = tested on: SNB-19 CNS
MDA-N = tested on: MDA-N
LOX IMVI melanoma = tested on: LOX IMVI melanoma

Measured: TGI

C=CC[C@]12C=C(OC)[C@@H](O)[C@](OC)(C(c3cc(OC)c4c(c3)OCO4)[C@H]1C)[C@H]2OC(C)=O (some centres undefined)
not listed: LOX IMVI melanoma
> 100 µM: all other assays above

NC(CCC(=O)NC(CSCC1C(=O)Nc2ccccc21)C(=O)NCC(=O)O)C(=O)O (centres undefined)
> 22.2 µM: OVCAR-4 ovarian
> 45.6 µM: SF-295 CNS
2.78 µM: LOX IMVI melanoma
8.2 µM: SNB-75 CNS
> 24.8 µM: CCRF-CEM leukemia
23.6 µM: UACC-62 melanoma
> 32.9 µM: KM12 colon
49 µM: PC-3 prostate
19.5 µM: UACC-257 melanoma
25.4 µM: SK-MEL-2 melanoma
18.3 µM: SF-539 CNS | U251 CNS
14.5 µM: SK-MEL-28 melanoma
> 49.4 µM: SK-OV-3 ovarian
11 µM: HCT-15 colon
17.5 µM: MCF7 breast
31.1 µM: OVCAR-5 ovarian
9.95 µM: CAKI-1 renal
10.6 µM: HCC-2998 colon
15.5 µM: SF-268 CNS
> 100 µM: HS 578T breast | SNB-19 CNS
16.7 µM: MDA-N
11.2 µM: OVCAR-3 ovarian
10.8 µM: M14 melanoma
21.9 µM: NCI-H226 lung
13.4 µM: OVCAR-8 ovarian
18.9 µM: MDA-MB-231 breast | TK-10 renal
6.52 µM: RPMI-8226 leukemia
9.27 µM: HCT-116 colon
19.7 µM: NCI/ADR-RES ovarian | A549 NSCLC
> 44.8 µM: SK-MEL-5 melanoma
2.8 µM: NCI-H522 lung
20 µM: MALME-3M melanoma | ACHN renal
2.51 µM: SR leukemia
11.3 µM: NCI-H23 lung
> 23.3 µM: T-47D breast
10.7 µM: SW-620 colon
12.8 µM: MOLT-4 leukemia
14.8 µM: MDA-MB-435
12.9 µM: DU-145 prostate
33.1 µM: A498 renal
14.7 µM: HT29 colon
8.55 µM: 786-0 renal
10.5 µM: COLO 205 colon
31.2 µM: EKVX NSCLC
47.5 µM: HL-60(TB) leukemia
1.74 µM: UO-31 renal
38.6 µM: HOP-62 NSCLC
37.2 µM: NCI-H460 lung
2.33 µM: RXF 393 renal
13 µM: IGROV1 ovarian
13.9 µM: SN12C renal
15.9 µM: BT-549 breast
9.55 µM: HOP-92 NSCLC

CCOC(=O)NC(Nc1ccc([N+](=O)[O-])cc1)(C(F)(F)F)C(F)(F)F
49.1 µM: MDA-MB-435
97.1 µM: RXF 393 renal
54.7 µM: MDA-N
not listed: OVCAR-4 ovarian
> 100 µM: all other assays above
